Source: patent US8937068B2, “Pyridopyrazine derivatives and their use” (Zentaris GmbH, priority 2005, dated 2015)

What was measured:
Erk2 = Erk2 (Homo sapiens, UniProt P28482); assay: Cell-free kinase assay (ALPHA technology), Erk2; assay type: biochemical; conditions: 10 μM ATP
Method in brief: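 Recombinant tagged Erk2 kinase reactions were stopped with ALPHA bead mix […]. The signal was read after standing overnight. Controls were run in eight replicates and compounds in duplicate, and IC50 was fitted.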

Hct116 = assay: XTT assay, anti-proliferative effect, Hct116; assay type: cell-based; conditions: 45 h incubation
Description: (§1) The principle of this test is based on the intracellular reduction of the tetrazolium dye XTT (sodium 3′-[1-(phenylaminocarbonyl)-3,4-tetrazolium]-bis(4-methoxy-6-nitro)benzene sulfonic acid, Sigma) to a formazan dye by mitochondrial dehydrogenases. The dye is only formed by metabolically active cells and its photometrically measurable intensity is a quantitative indicator for the presence of living cells. The reduction of dye formation by incubation of the cells with substances serves as a parameter for the anti-proliferative effect.
(§2) The tumour cell lines (ATCC) were injected into 96-well microtitre plates in a defined cell number (5000 cells/well for BxPC3 and Hct116; 10000 cells/well for MDA MB468) and then incubated overnight in an incubator at 37° C., 5% CO2 and 95% air humidity. The test substances were prepared as stock solutions (10 mM) in DMSO. […] The cell plates were then incubated for 45 h in an incubator at 37° C., 5% CO2 and 95% air humidity.
(§3) For the detection reaction the substrate XTT was mixed with PMS (N-Methyl dibenzopyrazine methylsulfate, Sigma) and added to the cells so that a final concentration of 325 μg XTT/ml and 2.5 μg PMS/ml was obtained. It was then incubated for 3 h at 37° C., 95% air humidity. The formazan salt formed by the cellular dehydrogenases could then be quantified by adsorption at 490 nm.
(§4) The % inhibition value was evaluated by means of the following formula from the values for the optical densities measured in each case at 490 nm:
(§5) Eight determinations were made for each control and two for the substance samples. The 0% control contains no cells, the 100% control (proliferation control) contains no test substance. The EC50 values were determined using GraphPadPrism.

MDA-MB468 = assay: XTT assay, anti-proliferative effect, MDA-MB468; assay type: cell-based; conditions: 45 h incubation
Description: as §1, §2, §3, §4, §5

Erk → pRsk = assay: Cellular substrate phosphorylation (Western Blotting), Erk substrate pRsk; assay type: cell-based; conditions: 50 μM, 5 h
Description: This method can be used to predict whether the kinase modulator under study also achieves the desired effect in a cellular context, i.e. in this case, a substrate protein downstream of the target kinase is investigated for its phosphorylation status. For this purpose, the cells incubated with substance are lysed and the total protein separated on a reducing polyacrylamide gel. The proteins are then transferred to a PVDF membrane by means of Western Blotting and the substrate bands sought are made visible with specific antibodies and a suitable detection method. The substrate proteins downstream of the target kinases are detected simultaneously with a respectively special anti-phospho-antibody and at the same time a total antibody which recognizes the substrate total protein. This simultaneous measurement can be made using the duplex technology of the ODYSSEY imagers (LiCOR). The intensity of the total substrate bands is used for normalising or quantifying the phosphorylation inhibition or activation.
Suitable tumour cell lines (e.g. BxPC3, Hct116 or MDA MB468) were injected into six-well microtitre plates in a defined cell number (e.g. 350 000 cells/well for BxPC3 and Hct116) in the respective standard complete medium and then incubated overnight at 37° C., 5% CO2 and 95% air humidity. The cells were then incubated for a further 24 h under serum-reduced conditions i.e. in the respective medium but with only 0.25% serum. The test substances were prepared as stock solutions (10 mM) in DMSO and incubated with the cells in final concentrations of 5, 15.8 and 50 μM for 5 h. This was followed by cell lysis in 25 mM Tris, 150 mM NaCl, 10 mM Na-pyrophosphate, 2 mM EGTA, 25 mM β-glycerophosphate, 25 mM NaF, 10% glycerine, 0.75% NP-40, 100 μM NaVO4 buffer. Following protein quantification by means of BCA (bicinchonic acid protein assay kit, Sigma) Assay, protein quantities of about 20 μg per track were separated on a Lämmli polyacrylamide gel and then transferred to a PVDF membrane (Millipore) by means of Semi-Dry Western-Blotting at 0.8 mA/cm^2 for 1 h. This was followed by pre-hybridisation of the membrane for 1 hour in I-block reagent (Applied Biosystems) and incubation overnight with the specific antibodies. To determine the Erk and PI3K inhibition, the respectively downstream substrates Rsk1 were detected with the total antibody (Rsk #sc-231g C-21, Santa Cruz) and the phospho-antibody (Phospho-p90RSK (S380) #9341, NEB Cell Signalling) and Akt was detected with the total antibody (Akt1 #sc-1618 C-20, Santa Cruz) and the phospho-antibody (Phospho-Akt (Ser 473) #9271, NEB Cell Signaling). After washing the membrane, secondary antibody incubation was carried out with anti-rabbit IR Dye 800 (#611-732-127, Rockland) for the phospho-antibody and anti-goat Alexa Fluor 680 (#A-21081, Molecular Probes) for the total protein-antibody. After incubating for 30 min at room temperature in the dark, the hybridisation of the detection antibody on the membrane was detected by scanning in the ODYSSEY imager (LiCOR).
The reduction of the fluorescence intensity of the phospho-substrate bands (pRsk and pAkt) is given in the table below as % inhibition and relates to the following formula:
The band intensity (fluorescence intensity) of the respective non-inhibited (without substance) phospho-substrates was used as 100% control.

Erk2, sequence (P28482 2-360 limits assumed): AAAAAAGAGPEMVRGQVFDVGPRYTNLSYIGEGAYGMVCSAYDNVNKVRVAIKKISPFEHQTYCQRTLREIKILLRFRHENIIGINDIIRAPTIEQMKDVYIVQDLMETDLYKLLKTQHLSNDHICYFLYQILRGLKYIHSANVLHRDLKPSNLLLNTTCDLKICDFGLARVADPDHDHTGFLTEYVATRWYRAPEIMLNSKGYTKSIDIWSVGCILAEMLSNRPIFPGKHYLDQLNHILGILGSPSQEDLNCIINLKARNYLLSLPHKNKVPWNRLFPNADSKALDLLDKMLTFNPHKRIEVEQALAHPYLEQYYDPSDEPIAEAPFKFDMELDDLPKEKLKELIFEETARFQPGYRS

Compound	IC50 (Erk2)	EC50 (Hct116; Homo sapiens, HCT-116)	EC50 (MDA-MB468; Homo sapiens, MDA-MB-468)	inhibition at 50 µM (Erk → pRsk)	EC50 (Hct116)	EC50 (MDA-MB468)	Inhibition of cellular substrate phosphorylation Erk → pRsk (Erk → pRsk)
C=CCNC(=S)Nc1ccc2ncc(-c3ccc(O)cc3)nc2n1 [Compound 30, 1-allyl-3-[3-(4-hydroxy-phenyl)-pyrido[2,3-b]pyrazin-6-yl]-thiourea]	0.392 µM	6 µM	4 µM	90%	–	–	–
CCNC(=O)Nc1ccc2ncc(-c3ccc(O)c(OC)c3)nc2n1 [Compound 124, 1-Ethyl-3-[3-(4-hydroxy-3-methoxy-phenyl)-pyrido[2,3-b]pyrazin-6-yl]-urea]	0.062 µM	1.5 µM	10 µM	90%	–	–	–
O=C(NCCCCO)Nc1ccc2ncc(-c3ccccc3)nc2n1 [Compound 146, 1-(4-Hydroxy-butyl)-3-(3-phenyl-pyrido[2,3-b]pyrazin-6-yl)-urea]	0.155 µM	9.3 µM	~20 µM	100%	–	–	–
CCNC(=O)Nc1ccc2ncc(Nc3ccc(C)cc3)nc2n1 [Compound 150, 1-Ethyl-3-(3-p-tolylamino-pyrido[2,3-b]pyrazin-6-yl)-urea]	18.7 µM	2.3 µM	4.3 µM	0%	–	–	–
CCNC(=O)Nc1ccc2ncc(-c3cnn(C)c3)nc2n1 [Compound 173, 1-Ethyl-3-[3-(1-methyl-1H-pyrazol-4-yl)-pyrido[2,3-b]pyrazin-6-yl]-urea]	0.107 µM	9 µM	> 25 µM	90%	–	–	–
CCNC(=O)Nc1ccc2ncc(-c3ccc(O)c(OC)c3)nc2n1.Cc1ccc(S(=O)(=O)O)cc1 [Compound 183, 1-Ethyl-3-[3-(4-hydroxy-3-methoxy-phenyl)-pyrido[2,3-b]pyrazin-6-yl]-urea p-Toluolsulfonate]	0.203 µM	–	–	–	2.1 µM	4.3 µM	80%
